The results in this text go back to US12195473B2, “KRAS mutant protein inhibitors” (JACOBIO PHARMACEUTICALS CO., LTD, priority 2019, dated 2025).

pIC50: −log10 of the molar value. Where two headings read alike, the source gives them in different places.

For series [1], the system named is HIS-KRAS (G12C). It counts as biochemical. The settings on record: read-out: SOS1 catalyzed nucleotide exchange IC50.
Series [2] concerns NCI-H358 cells expressing KRAS G12C. Kind of series: Phospho-ERK1/2(THR202/TYR204) HTRF assay. It counts as cell-based. Particulars: 2 hours incubation, read-out: p-ERK IC50. Here is the method: NCI-H358 cells expressing KRAS G12C were cultured in RPMI 1640 medium (Gibco) containing 10% fetal bovine serum (Gibco). The NCI-H358 cells in culture medium were seeded in 96-well plates at a concentration of 40,000 cells/well and then put in a 37° C./5% CO2 cell incubator to incubate overnight. The next day, culture medium was removed and the compound diluted in assay medium (RPMI 1640, 0.1% FBS) was added in each well. After 2 hours incubation in a 37° C./5% CO2 cell incubator, the assay medium in 96-well plates was removed, then 50 μL of 1× blocking reagent-supplemented lysis buffer (Cisbio) was added and the plates were incubated at 25° C. for 45 min with shaking. 10 μL of cell lysates from the 96-well plates were transferred to a 384-well plate (Greiner) containing 2.5 μL/well HTRF® pre-mixed antibodies (Cisbio 64AERPEH). Incubate 4 hours at 25° C. and then read HTRF signals on Tecan Spark multimode microplate reader. The data were analyzed using a 4-parameter logistic model to calculate IC50 values.

Series [3] in a line: Mouse pharmacokinetic study. The settings on record: for clearance / Vd / Cmax / AUC(0-t) / bioavailability: plasma, Balb/c mouse (female); for clearance / Vd: 3 mg/kg, iv; for Vd: read-out: Vss; for Cmax / AUC(0-t) / bioavailability: 10 mg/kg, po; for AUC(0-t): read-out: AUC0-24 h; for bioavailability: read-out: Oral BA (F %). It counts as in vivo, Balb/c mouse. The procedure:
3. Mouse Pharmacokinetic Study
The purpose of this study was to evaluate the pharmacokinetic properties of compounds in Balb/c mouse (♀) following single dose administration. The day before administration, mice were fasted overnight and free access to water. Six mice were needed for each compound and the six mice were divided into two groups (n=3/group), group A and group B. Mice in group A were treated with a single 3 mg/kg dose of compound (iv). Mice in group B were treated with a single 10 mg/kg dose of compound (po). For each mouse in group A, blood samples were collected at pre-dose, and at the time point of 0.083, 0.25, 0.5, 1, 2, 4, 6, 8 and 24 h post-dose. For each mouse in group B, blood samples were collected at pre-dose, and at the time point of 0.25, 0.5, 1, 2, 3, 4, 6, 8 and 24 h post-dose. Blood samples were placed on ice until centrifugation to obtain plasma samples. The plasma samples were stored at −80° C. until analysis. The concentration of compound in plasma samples were determined using a LC-MS/MS method.

The nature of series [4]: Dog pharmacokinetic study. Type of series: in vivo, beagle dog. Particulars: plasma, beagle dog; for clearance / Vd: 1 mg/kg, iv; for Vd: read-out: VSS; for AUC(0-t) / Cmax / bioavailability: 10 mg/kg, po; for AUC(0-t): read-out: AUC0-24 h; for Cmax: read-out: Cmax; for bioavailability: read-out: Oral BA (F %). Here is the method:
4. Dog Pharmacokinetic Study
The purpose of this study was to evaluate the pharmacokinetic properties of compounds in beagle dog following single dose administration. The day before administration, dogs were fasted overnight and free access to water. Four beagle dogs were needed for each compound and the four dogs were divided into two groups (one male (♂) and one female (♀) in each group). Dogs in group A were treated with a single 1 mg/kg dose of compound (iv). Dogs in group B were treated with a single 10 mg/kg dose of compound (po). For dogs in group A, blood samples were collected at pre-dose, and at the time point of 0.083, 0.25, 0.5, 1, 2, 4, 6, 8 and 24 h. For dogs in group B, blood samples were collected at pre-dose, and at the time point of 0.25, 0.5, 1, 2, 4, 6, 8 and 24 h post-dose. Blood samples were placed on ice until centrifugation to obtain plasma samples. The plasma samples were stored at −80° C. until analysis. The concentration of compound in plasma samples were determined using a LC-MS/MS method.

Turning to `C=CC(=O)N1CCN(c2c(C#N)c(=O)n(-c3c(C)ccnc3C(C)C)c3nc(-c4c(N)c(F)c(F)c(F)c4F)c(Cl)cc23)CC1` (atropisomer, axis not shown; (P)) [Compound 1-1, (P)-4-(4-acryloylpiperazin-1-yl)-7-(2-amino-3,4,5,6-tetrafluorophenyl)-6-chloro-1-(2-isopropyl-4-methylpyridin-3-yl)-2-oxo-1,2-dihydro-1,8-naphthyridine-3-carbonitrile], the pIC50 (in general, the negative decadic logarithm of the IC50, by convention in mol/L) in series [1] was 7.85; in series [2] it was 6.75.
`C=CC(=O)N1CCN(c2c(C#N)c(=O)n(-c3c(C)ccnc3C(C)C)c3nc(-c4ccccc4F)c(Cl)cc23)CC1` [Amgen 6, 4-(4-acryloylpiperazin-1-yl)-6-chloro-7-(2-fluorophenyl)-1-(2-isopropyl-4-methylpyridin-3-yl)-2-oxo-1,2-dihydro-1,8-naphthyridine-3-carbonitrile]: in series [2] (Homo sapiens), the pIC50 is 7.52. Further, in series [3], the clearance (as a rule, the volume of plasma or blood freed of the substance per unit of time) came to 72 mL/min/kg; the Vd is 2.6 L/kg; the peak level (Cmax) was 901 ng/mL; the AUC(0-t) stood at 1030 ng·h/mL. The bioavailability in series [3] came out at 44%. Also, in series [4] (female), the clearance was 15.5 mL/min/kg; the Vd was determined as 0.543 L/kg; the AUC(0-t) worked out at 1330 ng·h/mL; the Cmax (as a rule, the maximum level reached in the sampled fluid or tissue) worked out at 2580 ng/mL. In addition, the bioavailability in series [4] (female) was determined as 12.4%. Moreover, in series [4] (male), the clearance is 11.8 mL/min/kg, the Vd came to 0.412 L/kg, the AUC(0-t) was determined as 2940 ng·h/mL and the Cmax was found to be 3690 ng/mL. Further, the bioavailability in series [4] (male) is 20.9%.
With `C=CC(=O)N1CCN(c2c(C#N)c(=O)n(-c3c(C(C)C)ncnc3C(C)C)c3nc(-c4c(N)cccc4F)c(Cl)cc23)CC1` [Amgen 6.3, 4-(4-acryloylpiperazin-1-yl)-7-(2-amino-6-fluorophenyl)-6-chloro-1-(4,6-diisopropylpyrimidin-5-yl)-2-oxo-1,2-dihydro-1,8-naphthyridine-3-carbonitrile], the pIC50 in series [1] (GDP-loaded HIS-KRAS (G12C), 1 hour pre-incubation with compound, TR-FRET) was 8.56. For the same molecule, the negative logarithm of the IC50 (pIC50) in series [2] (Homo sapiens) is 7.70. Besides, in series [3], the clearance came out at 32 mL/min/kg, the Vd amounted to 1.4 L/kg, the Cmax came out at 1590 ng/mL and the AUC(0-t) came to 1660 ng·h/mL. Moreover, in series [3], the bioavailability stood at 32%. Further, in series [4] (female), the clearance was 329 mL/min/kg and the Vd was 3.1 L/kg. In addition, in series [4] (male), the clearance is 239 mL/min/kg, the Vd stood at 2.3 L/kg, the AUC(0-t) came out at 5.1 ng·h/mL and the Cmax is 8 ng/mL. In series [4] (male), the bioavailability was 0.7%.
As for `C=CC(=O)N1CCN(c2c(C#N)c(=O)n(-c3c(C)ccnc3C(C)C)c3nc(-c4c(N)c(F)c(F)c(F)c4F)c(Cl)cc23)[C@@H](C)C1` [Compound 11, 4-((S)-4-acryloyl-2-methylpiperazin-1-yl)-7-(2-amino-3,4,5,6-tetrafluorophenyl)-6-chloro-1-(2-isopropyl-4-methylpyridin-3-yl)-2-oxo-1,2-dihydro-1,8-naphthyridine-3-carbonitrile], in series [3] (mouse model, compared with Compound A, Amgen 6 and Amgen 6.3), the “Pharmacokinetic properties (in words)” value is given as “excellent pharmacokinetic properties”. Further, in series [3], the clearance worked out at 7.2 mL/min/kg, the Vd was found to be 1 L/kg, the peak level (Cmax) was 3340 ng/mL and the AUC(0-t) amounted to 9590 ng·h/mL. For the same molecule, the bioavailability in series [3] was found to be 38%.
